According to publication PMC6498869, “Structural and mutational analyses of psychrophilic and mesophilic adenylate kinases highlight the role of hydrophobic interactions in protein thermal stability” (Structural Dynamics, 2019):

Tests used:
Assay in all cases: ATP formation, hexokinase/G6PDH end-point assay
Type in all cases: biochemical
Conditions in all cases: 2.5 mM ADP, 2 mM MgCl2, 100 mM KCl, HEPES pH 7.4, 5-65 °C
AKm [1] = target: T1, AKm (Bacillus subtilis, UniProt P16304)
T1 construct: gene adk; full length (residues 1-217), pET11a, E. coli BL21 (DE3); Affi-Gel blue and size exclusion, no tag mentioned
T1 sequence (P16304 whole entry, the tested form may be a part): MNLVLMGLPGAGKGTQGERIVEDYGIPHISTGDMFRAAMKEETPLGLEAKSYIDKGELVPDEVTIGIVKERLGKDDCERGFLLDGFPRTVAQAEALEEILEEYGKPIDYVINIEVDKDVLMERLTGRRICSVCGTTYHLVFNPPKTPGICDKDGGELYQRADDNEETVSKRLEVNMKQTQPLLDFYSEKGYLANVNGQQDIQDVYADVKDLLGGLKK

AKp [2] = target: T2, AKp (Sporosarcina globispora, UniProt P84139)
T2 construct: gene adk; full length (residues 1-217), pET30a, E. coli BL21 (DE3); Affi-Gel blue and size exclusion, no tag mentioned
T2 sequence (P84139 whole entry, the tested form may be a part): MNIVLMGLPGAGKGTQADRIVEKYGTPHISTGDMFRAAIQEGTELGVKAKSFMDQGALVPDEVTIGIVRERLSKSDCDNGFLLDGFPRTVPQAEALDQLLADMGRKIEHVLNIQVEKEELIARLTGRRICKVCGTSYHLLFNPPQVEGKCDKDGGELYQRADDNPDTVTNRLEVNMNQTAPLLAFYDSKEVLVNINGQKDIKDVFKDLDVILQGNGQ

AKm [3] = target: T3, AKm (Bacillus subtilis, UniProt P16304, I26T)
T3 construct: gene adk; full length (residues 1-217), pET11a, E. coli BL21 (DE3); Affi-Gel blue and size exclusion, no tag mentioned
T3 sequence (P16304 whole entry I26T, the tested form may be a part): as the sequence (P16304 whole entry, the tested form may be a part) above, with I26T counted along it

AKp [4] = target: T4, AKp (Sporosarcina globispora, UniProt P84139, T26I)
T4 construct: gene adk; full length (residues 1-217), pET30a, E. coli BL21 (DE3); Affi-Gel blue and size exclusion, no tag mentioned
T4 sequence (P84139 whole entry T26I, the tested form may be a part): as the sequence (P84139 whole entry, the tested form may be a part) above, with T26I counted along it

In the case of `Nc1ncnc2c1ncn2[C@@H]1O[C@H](COP(=O)(O)OP(=O)(O)O)[C@@H](O)[C@H]1O` [ADP], the “ATP formation, hexokinase/G6PDH end-point assay” value (from here on “ATP formation”) (AKm [1]) is reported as “The activity assays of WT AKm and the I26T mutant also showed consistent results”, the “ATP formation” value (AKp [2]) is reported as “we determined the temperature dependence of the activities of WT AKp and its T26I mutant” and the “ATP formation” value (AKm [3]) is reported as “The activity assays of WT AKm and the I26T mutant also showed consistent results”. The “ATP formation” value (AKp [4]) was “we determined the temperature dependence of the activities of WT AKp and its T26I mutant”.
